Experimental data taken from patent publication US20210278391A1, “COMPOSITIONS AND METHODS FOR TREATING CARDIOVASCULAR AND METABOLIC CONDITIONS” (The Regents of the University of California, priority 2017, published 2021).

Legend:
[1] = Plasma BCAA/BCKA in ob/ob mice treated with BT2; assay type: in vivo, mouse; conditions: BT2 40 mg/kg/day
Procedure: (§1) Animals were euthanized using carbon dioxide asphyxiation followed by cervical dislocation and then dissected. Blood was harvested by cardiac puncture and centrifuged to isolate plasma which was stored at −80° C. Acidified citrate dextrose was used as an anticoagulant. Immediately after blood collection, heart, liver, kidneys, and both hind leg quadriceps muscles were removed and snap frozen in liquid nitrogen.
(§2) The endogenous signal from blank plasma was subtracted from each point on the standard curve, and the data were plotted in GraphPad Prism. BCAA concentrations in treated samples were determined based on this standard curve.

[2] = Plasma BCAA/BCKA in DIO mice treated with BT2; assay type: in vivo, mouse; conditions: BT2 40 mg/kg/day 8 weeks
Procedure: as §1, §2

ob/ob mice = test: Glucose and insulin tolerance, plasma insulin, food intake, body weight in ob/ob mice treated with BT2; assay type: in vivo, mouse; conditions: BT2 40 mg/kg/day
Procedure: as §1
(§3) Mice were fasted for 6 hours. For insulin tolerance test, mice were injected (intraperitoneal) with insulin (0.75 U/kg body weight). For glucose tolerance test, mice were injected intraperitoneally with D-glucose (2 g/kg body weight). Experiments were performed between 14:00 and 16:00. Blood was drawn 0, 15, 30, 60, and 120 min after insulin or glucose administration. Blood glucose concentrations were measured through tail bleeding before and at the times indicated after injection. Blood glucose was measured using a portable glucometer (Johnson&Johnson). Plasma insulin and TNFα concentrations were measured by Milliplex Multiplex Immunoassay Kits MMHMAG-44K-14 (Merck Millipore, Darmstadt, Germany).

[3] = test system: pressure-overloaded heart; test: Transaortic constriction (TAC) pressure overload, BT2 started one week before TAC, echocardiography; assay type: in vivo, mouse; conditions: 4 weeks after TAC, BT2 40 mg/kg/d oral gavage
Procedure: (§4) PP2Cm germ-line knockout (PP2Cm-KO) mice were generated as previously described (Lu et al. (2009), supra). PP2Cm KO mice were backcrossed for more than 8 generations into a C57BL/6 background. Wild type C57BL/6 mice and PP2Cm KO mice were housed at 22° C. with a 12-hour light, 12-hour dark cycle with free access to water and standard chow. Studies were performed with male mice. Human cohorts of dilated cardiomyopathy and controls were obtained from Columbia and Duke with Institutional Review Board approval. All animal procedures were carried out in accordance with the guidelines and protocols approved by the University of California at Los Angeles Institutional Animal Care and Use Committee (IACUC). Transaortic constriction (TAC) and cardiac echocardiography were performed as reported earlier 17 on mice from different genotypes between 14 and 16 weeks of age. […] Measurements of BCKD activity in mouse cardiac tissue and plasma BCKA/BCAA concentrations were performed as previously described (Tso et al. (2014), supra).
In mice, transverse aortic constriction (TAC) was performed as described (Gao et al. (2016) J Clin Invest. 126:195-206) in anesthetized (pentobarbital 60 mg/kg, IP) and ventilated mice (age 14-16 weeks) to induce hypertrophy and heart failure. […]

BCKD subunit E1α [4] = test: Western blot of phosphorylated E1α and BCKDK in heart post-TAC; assay type: in vivo, mouse
Procedure: Proteins from heart tissue were harvested in buffer (50 mM HEPES [pH7.4], 150 mM NaCl, 1% NP-40, 1 mM EDTA, 1 mM EGTA, 1 mM glycerophosphate, 2.5 mM sodium pyrophosphate 1 mM Na3VO4, 20 mM NaF, 1 mM phenylmethylsulfonyl fluoride, 1 μg/mL of aprotinin, leupeptin, and pepstatin). Samples were separated on 4-12% Bis-Tris gels (Invitrogen), and transferred onto a nitrocellulose blot (Amersham). The blot was probed with the indicated primary antibodies. Protein signals were detected using HRP conjugated secondary antibodies and enhanced chemiluminescence (ECL) western blotting detection regents (Pierce). Rabbit polyclonal antisera against the E1α subunits of BCKD complex and phosphor-E1α antibodies were purchased from Abcam. PP2Cm antibody was generated in the lab.

BCKD subunit E1α [5] = test: Immunoblot of phosphorylated BCKD subunit E1α in heart of BT2-treated mice; assay type: in vivo, mouse; conditions: wild-type mice, BT2 40 mg/kg/d oral gavage vs vehicle
Procedure: PP2Cm germ-line knockout (PP2Cm-KO) mice were generated as previously described (Lu et al. (2009), supra). PP2Cm KO mice were backcrossed for more than 8 generations into a C57BL/6 background. Wild type C57BL/6 mice and PP2Cm KO mice were housed at 22° C. with a 12-hour light, 12-hour dark cycle with free access to water and standard chow. Studies were performed with male mice. Human cohorts of dilated cardiomyopathy and controls were obtained from Columbia and Duke with Institutional Review Board approval. All animal procedures were carried out in accordance with the guidelines and protocols approved by the University of California at Los Angeles Institutional Animal Care and Use Committee (IACUC). Transaortic constriction (TAC) and cardiac echocardiography were performed as reported earlier 17 on mice from different genotypes between 14 and 16 weeks of age. […]
Proteins from heart tissue or cells were harvested in buffer (50 mM HEPES (pH7.4), 150 mM NaCl, 1% NP-40, 1 mM EDTA, 1 mM EGTA, 1 mM glycerophosphate, 2.5 mM sodium pyrophosphate, 1 mM Na3VO4, 20 mM NaF, 1 mM phenylmethylsulfonyl fluoride, 1 μg/mL of aprotinin, leupeptin, and pepstatin). […] Protein signals were detected using HRP conjugated secondary antibodies and enhanced chemiluminescence (ECL) western blotting detection regents (Pierce). […]

[6] = test system: pressure-overloaded mouse heart; test: Metabolic gene expression (quantitative PCR) in pressure-overloaded mouse heart; assay type: in vivo
Text: Total RNA was extracted from heart tissues using Trizol Reagent (Invitrogen) according to the manufacturer's instructions. Total RNA was reverse-transcribed into the first-strand cDNA using ProtoScript® II Reverse Transcriptase (New England BioLabs). Then, cDNA transcripts were quantified by the CFX Real-Time PCR System (BioRad). 18sRNA were used for normalization except where indicated. PCR primer information is available upon request.

BCKD = BCKD activity in mouse cardiac tissue; assay type: in vivo; conditions: BT2 vs vehicle
Procedure: as §4

[7] = test system: high fat diet (HFD)-induced obese (DIO) mice; test: Glucose and insulin tolerance, plasma insulin in DIO mice treated with BT2; assay type: in vivo, mouse; conditions: BT2 40 mg/kg/day 8 weeks
Procedure: as §1, §3

SMILES: O=C(O)c1sc2cc(Cl)ccc2c1Cl [BT2, 3,6-dichlorobenzo[b]thiophene-2-carboxylic acid]
- magnitudes of reductions in plasma BCKA concentrations (vs BCAA) [1]: far more pronounced
- plasma BCAA levels [1]: significantly lowered
- plasma BCAA/BCKA levels [2]: lowers
- glucose tolerance (ob/ob mice): significantly improved
- hyperinsulinemia (ob/ob mice): attenuation
- insulin sensitivity (ob/ob mice): significantly improved
- chamber dilation [3]: reduced
- left ventricular ejection fraction [3]: significantly preserved
- cardiac BCAA catabolic activities post-TAC (BCKD subunit E1α [4]; intragastric, six weeks): enhanced
- BCKDK mediated E1α phosphorylation (BCKD subunit E1α [4]; post-TAC heart, BT2 40 mg/kg/day 6 weeks vs vehicle): significantly reduced
- BCKDK protein expression (BCKD subunit E1α [4]; post-TAC heart, BT2 vs vehicle): insignificant effect
- phosphorylation of BCKD subunit E1α in heart (BCKD subunit E1α [5]): significantly reduced
- PDK4 mRNA level ([6]; BT2 treated mouse heart): trend of increase
- gene expression related to glucose transport ([6]; BT2 treated mouse heart): unaffected
- mRNA level of CD36 ([6]; BT2 treated mouse heart post-TAC): moderately increased
- genes related to fatty acid β-oxidation (Acox1, Acadm) ([6]; BT2 treated mouse hearts): mild increase
- mitochondrial DNA amount and PGC-1a mRNA levels ([6]; vehicle vs BT2, post-sham or post-TAC): unaffected
- enhancement of cardiac BCKD activity (BCKD; PP2Cm-KO mice): ~9 fold
- enhancement of cardiac BCKD activity (BCKD; wild-type mice): ~7 fold
- glucose tolerance [7]: improved
- hyperinsulinemia [7]: improved
- insulin sensitivity [7]: improved
